Measured values reported in publication PMC7044277 (Nature Communications, 2020).
Where “and” joins values, the source holds several entries; their conditions need not be identical. Equal entries are not always repeated.

Experiments:
Format in all cases: cell-based
320 non-olfactory GPCRs [1] = molecular target: T1, 320 non-olfactory GPCRs (Homo sapiens, UniProt P47871)
T1 construct: expressed in transfected cells; host or cells: HTLA cells

320 non-olfactory GPCRs [2] = molecular target: 320 non-olfactory GPCRs (Homo sapiens, UniProt P35462)
320 non-olfactory GPCRs [3] = molecular target: T2, 320 non-olfactory GPCRs (Homo sapiens, UniProt P48039); details: receptor MTNR1A; replicate values, Fig_4g
T2 construct: expressed in transfected cells; host or cells: HTLA cells

320 non-olfactory GPCRs [4] = molecular target: T3, 320 non-olfactory GPCRs (Homo sapiens, UniProt P49146); details: receptor NPY2R; replicate values, Fig_4g
T3 construct: expressed in transfected cells; host or cells: HTLA cells
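Throughout, for Fold of Basal: compound tested at 1 µM final concentration.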
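Throughout, for GPCRome agonism screen response: fold over basal response of each receptor without drug.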

T3 sequence (P49146 whole entry): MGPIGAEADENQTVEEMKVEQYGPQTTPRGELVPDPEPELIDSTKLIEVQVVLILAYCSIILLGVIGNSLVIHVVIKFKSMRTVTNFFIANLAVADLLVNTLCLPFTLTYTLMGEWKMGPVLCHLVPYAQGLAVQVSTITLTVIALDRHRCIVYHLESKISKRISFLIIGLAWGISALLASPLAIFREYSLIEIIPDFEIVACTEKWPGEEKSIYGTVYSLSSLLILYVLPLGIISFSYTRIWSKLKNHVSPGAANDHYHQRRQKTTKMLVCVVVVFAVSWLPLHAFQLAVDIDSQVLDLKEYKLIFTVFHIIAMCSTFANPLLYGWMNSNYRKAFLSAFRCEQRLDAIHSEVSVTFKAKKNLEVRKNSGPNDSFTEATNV
T1 sequence (P47871 26-477): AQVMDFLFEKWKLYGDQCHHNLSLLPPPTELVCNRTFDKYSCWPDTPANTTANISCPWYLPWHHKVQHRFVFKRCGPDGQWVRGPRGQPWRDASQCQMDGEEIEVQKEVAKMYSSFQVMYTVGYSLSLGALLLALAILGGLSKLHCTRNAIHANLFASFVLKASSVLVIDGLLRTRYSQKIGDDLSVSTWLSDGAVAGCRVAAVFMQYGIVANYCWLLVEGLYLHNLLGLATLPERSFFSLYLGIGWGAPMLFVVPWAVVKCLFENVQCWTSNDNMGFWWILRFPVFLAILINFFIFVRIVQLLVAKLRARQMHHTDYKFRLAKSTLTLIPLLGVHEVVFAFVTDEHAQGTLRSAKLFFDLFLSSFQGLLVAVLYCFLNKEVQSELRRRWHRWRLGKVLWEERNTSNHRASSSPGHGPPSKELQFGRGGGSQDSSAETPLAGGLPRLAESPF
T2 sequence (P48039 whole entry): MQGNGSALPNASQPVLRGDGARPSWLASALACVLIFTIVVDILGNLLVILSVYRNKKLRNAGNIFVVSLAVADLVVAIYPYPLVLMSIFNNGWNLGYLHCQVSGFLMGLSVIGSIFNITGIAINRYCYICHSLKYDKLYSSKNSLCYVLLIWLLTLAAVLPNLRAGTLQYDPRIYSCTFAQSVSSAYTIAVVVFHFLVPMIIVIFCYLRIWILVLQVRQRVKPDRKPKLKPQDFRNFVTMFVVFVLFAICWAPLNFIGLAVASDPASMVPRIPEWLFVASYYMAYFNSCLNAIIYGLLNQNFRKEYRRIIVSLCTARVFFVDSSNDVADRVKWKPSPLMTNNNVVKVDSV
Chain of 320 non-olfactory GPCRs (Homo sapiens, UniProt P35462) (P35462 whole entry): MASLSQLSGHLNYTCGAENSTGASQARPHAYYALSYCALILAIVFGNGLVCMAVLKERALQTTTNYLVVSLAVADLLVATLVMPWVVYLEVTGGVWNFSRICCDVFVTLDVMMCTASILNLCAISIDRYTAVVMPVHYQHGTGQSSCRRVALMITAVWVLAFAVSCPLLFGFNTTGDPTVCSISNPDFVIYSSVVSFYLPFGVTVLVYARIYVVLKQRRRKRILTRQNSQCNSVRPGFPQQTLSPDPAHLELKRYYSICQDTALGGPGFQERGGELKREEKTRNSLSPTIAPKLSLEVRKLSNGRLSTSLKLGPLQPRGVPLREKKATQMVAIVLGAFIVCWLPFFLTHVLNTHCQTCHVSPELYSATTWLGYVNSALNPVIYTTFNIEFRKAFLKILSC

SMILES: CCOc1cccc2cc(C(C)NCC3(O)CCCCC3)oc12 (stereo not shown) [O4LE6]
- Fold of Basal (320 non-olfactory GPCRs [1]): 1.104 and 0.7209 and 1.128 and 1.0533
- Fold of Basal (320 non-olfactory GPCRs [2]): 9.324 and 11.1304 and 9.776 and 11.3977
- GPCRome agonism screen response (320 non-olfactory GPCRs [3]): 2.743 and 4.229 and 2.242 and 2.817
- GPCRome agonism screen response (320 non-olfactory GPCRs [4]): 0.7835 and 0.8337 and 0.6188 and 0.7117
